The text below walks through data of US20240142382A1, “METHODS AND COMPOSITIONS FOR CALIBRATED LABEL-FREE SURFACE-ENHANCED RAMAN SPECTROSCOPY” (Virginia Tech Intellectual Properties, Inc., priority 2021, published 2024).

One test concerns HCC-1806. The note with it: HCC-1806 triple-negative breast cancer cells; read-out: half-maximal inhibition concentration (IC50); cited from earlier work.
Another test has as its system MDA-MB-231 cells. Description: label-free SERS mapping with PLS-DA of living cells treated with PTX dosages. The test is classed as cell-based, human. The note with it: 1.5 nM PTX, MDA-MB-231, PLS-DA after ERS calibration.
A further test relates to HCC-1806 cells. Described as above. The test is classed as cell-based, human. The note with it: 1.5 nM, 5 nM and 15 nM PTX, HCC-1806, after ERS calibration.

With `CC(=O)O[C@H]1C(=O)[C@@]2(C)[C@H]([C@H](OC(=O)c3ccccc3)[C@]3(O)C[C@H](OC(=O)[C@H](O)[C@@H](NC(=O)c4ccccc4)c4ccccc4)C(C)=C1C3(C)C)[C@]1(OC(C)=O)CO[C@@H]1C[C@@H]2O` [PTX, paclitaxel], the IC50 with HCC-1806 is 1.5 nM. Also, the “changes of SERS-measured molecular profiles versus control group (0 nM)” value in the test on MDA-MB-231 cells is on record as “not enough to elicit significant changes”. For the same compound, the “separation of PLS-DA scatters of control group (0 nM) from PTX treated groups” value in the test on HCC-1806 cells is on record as “completely separate”.
